Results on 58 molecules are retold here after patent US12581252B2, “Substituted pyrrolo[3,4-b]pyridines as PI3K-α inhibitors” (Relay Therapeutics, Inc., priority 2020, dated 2026).

Chain of H1047R PIK3CA enzyme (P42336 whole entry H1047R): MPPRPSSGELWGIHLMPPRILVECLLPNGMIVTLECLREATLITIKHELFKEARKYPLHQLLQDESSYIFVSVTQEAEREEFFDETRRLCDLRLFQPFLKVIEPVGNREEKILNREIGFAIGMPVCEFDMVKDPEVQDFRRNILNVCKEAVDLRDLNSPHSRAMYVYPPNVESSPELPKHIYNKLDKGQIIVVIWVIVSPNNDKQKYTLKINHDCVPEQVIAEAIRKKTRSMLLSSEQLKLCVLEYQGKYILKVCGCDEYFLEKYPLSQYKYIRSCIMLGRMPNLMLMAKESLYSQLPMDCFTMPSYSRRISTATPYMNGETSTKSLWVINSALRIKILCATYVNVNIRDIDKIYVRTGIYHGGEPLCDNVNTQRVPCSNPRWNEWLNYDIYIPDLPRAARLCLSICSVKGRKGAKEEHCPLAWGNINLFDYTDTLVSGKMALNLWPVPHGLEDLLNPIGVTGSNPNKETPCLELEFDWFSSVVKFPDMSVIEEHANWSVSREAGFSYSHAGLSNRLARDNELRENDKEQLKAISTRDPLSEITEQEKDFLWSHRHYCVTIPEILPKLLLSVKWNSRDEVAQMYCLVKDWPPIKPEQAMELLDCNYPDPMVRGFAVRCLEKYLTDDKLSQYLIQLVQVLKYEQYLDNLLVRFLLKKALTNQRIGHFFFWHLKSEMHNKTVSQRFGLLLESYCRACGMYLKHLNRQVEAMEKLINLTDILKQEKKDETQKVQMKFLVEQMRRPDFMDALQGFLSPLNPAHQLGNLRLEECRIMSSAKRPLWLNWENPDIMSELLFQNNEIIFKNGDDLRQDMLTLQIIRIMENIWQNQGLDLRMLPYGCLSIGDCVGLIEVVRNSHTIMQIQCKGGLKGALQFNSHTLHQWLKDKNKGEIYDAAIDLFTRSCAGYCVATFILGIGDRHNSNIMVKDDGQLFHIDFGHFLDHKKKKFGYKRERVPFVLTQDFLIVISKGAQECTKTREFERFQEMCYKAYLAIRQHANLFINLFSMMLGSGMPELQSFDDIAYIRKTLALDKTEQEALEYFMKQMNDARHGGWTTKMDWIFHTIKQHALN
Chain of H1047R PIK3CA enzyme (P27986 whole entry partner): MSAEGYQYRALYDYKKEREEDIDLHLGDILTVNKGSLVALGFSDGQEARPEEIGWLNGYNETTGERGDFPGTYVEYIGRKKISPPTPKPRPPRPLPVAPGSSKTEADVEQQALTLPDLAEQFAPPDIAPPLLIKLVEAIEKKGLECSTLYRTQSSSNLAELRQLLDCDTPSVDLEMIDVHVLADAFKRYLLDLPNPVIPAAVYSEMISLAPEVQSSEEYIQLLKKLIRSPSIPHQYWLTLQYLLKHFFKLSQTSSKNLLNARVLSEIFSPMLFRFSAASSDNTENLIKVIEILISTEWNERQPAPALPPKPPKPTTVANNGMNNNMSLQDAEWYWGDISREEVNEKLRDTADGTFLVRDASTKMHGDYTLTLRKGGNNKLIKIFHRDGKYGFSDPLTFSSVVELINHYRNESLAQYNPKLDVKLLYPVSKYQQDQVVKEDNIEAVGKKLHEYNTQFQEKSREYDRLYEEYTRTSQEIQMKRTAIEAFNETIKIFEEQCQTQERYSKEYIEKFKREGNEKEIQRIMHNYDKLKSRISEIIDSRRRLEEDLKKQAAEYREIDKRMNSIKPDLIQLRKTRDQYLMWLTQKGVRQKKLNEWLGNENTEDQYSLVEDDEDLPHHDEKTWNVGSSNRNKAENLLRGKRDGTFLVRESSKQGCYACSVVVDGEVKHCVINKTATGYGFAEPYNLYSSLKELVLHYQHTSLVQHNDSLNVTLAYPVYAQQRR

This assay has as its target H1047R PIK3CA enzyme (Homo sapiens, UniProt P42336, H1047R). As to the kind of experiment: ADP-Glo Biochemical PIK3CA Kinase Assay. In general terms: In ADP-Glo the light output rises with the ADP produced.
Usually IC50 stands for the point on the concentration scale where inhibition reaches its midpoint. `CN(C)/C=N/c1cc(Br)cc2c1C(c1cc(F)ccc1Br)NC2=O` (stereo not shown) [Compound I-326] displayed an IC50 of 10000 to 100000 nM. The molecule `Cc1cc(F)ccc1C1NC(=O)c2cccc(NC(=O)c3cc(F)cc(C(F)(F)F)c3)c21` (stereo not shown) [Compound I-327] had an IC50 of 500 to 1000 nM. With `Cc1ccccc1C1NC(=O)c2cccc(NC(=O)c3nnc4ccccn34)c21` (stereo not shown) [Compound I-328, N-(1-oxo-3-(o-tolyl)isoindolin-4-yl)-[1,2,4]triazolo[4,3-a]pyridine-3-carboxamide] the figure was 10000 to 100000 nM. In the case of `O=C(Nc1cccc2c1C(c1cc(F)c(F)cc1C(F)F)NC2=O)c1cc(F)cc(C(F)(F)F)c1` (stereo not shown) [Compound I-330] it was no more than 100 nM. The molecule `O=C(Nc1cccc2c1C(c1cc(F)c(F)cc1C(F)F)NC2=O)c1cc(F)cc(Cl)c1` (stereo not shown) [Compound I-331] had an IC50 of 100 to 500 nM.

Take `O=C1NC(c2cc(F)c(F)cc2C(F)F)c2c(NC(=O)c3nsc4ccc(F)cc34)cccc21` (stereo not shown) [Compound I-332]: the IC50 is no more than 100 nM.

In the case of `O=Cc1cc(NC(=O)c2cc(F)cc(C(F)(F)F)c2)c2c(c1)C(=O)NC2c1cc(F)ccc1Cl` (stereo not shown) [Compound I-333, N-(3-(2-Chloro-5-fluorophenyl)-6-formyl-1-oxoisoindolin-4-yl)-3-fluoro-5-(trifluoromethyl)benzamide], the IC50 is no more than 100 nM. With `O=C(Nc1cc(C(O)CN2CC(F)(F)C2)cc2c1C(c1cc(F)ccc1Cl)NC2=O)c1cc(F)cc(Cl)c1` (stereo not shown) [Compound I-334] the figure was 100 to 500 nM. With `COc1ncc2c(c1NC(=O)c1cc(F)cc(C(F)(F)F)c1)C(c1ccccc1Cl)NC2=O` (stereo not shown) [Compound I-335, N-(1-(2-chlorophenyl)-6-methoxy-3-oxo-2,3-dihydro-1H-pyrrolo[3,4-c]pyridin-7-yl)-3-fluoro-5-(trifluoromethyl)benzamide] the figure was 10000 to 100000 nM; with `Cn1cc(C(=O)Nc2cc(NC(=O)c3cc(F)cc(C(F)(F)F)c3)c3c(c2)C(=O)NC3c2cc(F)ccc2Cl)cn1` (stereo not shown) [Compound I-336], no more than 100 nM; with `Cc1ccccc1C1NC(=O)c2cccc(NC(=O)c3cc(C(F)(F)F)ccn3)c21` (stereo not shown) [Compound I-337], 10000 to 100000 nM. `O=C(Nc1cc(NCC(F)F)nc2c1C(c1cc(F)ccc1Cl)NC2=O)c1cc(F)cc(C(F)(F)F)c1` (stereo not shown) [Compound I-338]: the half-maximal inhibitory concentration (IC50) is no more than 100 nM.

Molecule `Cc1ccccc1C1NC(=O)c2c(C(N)=O)ccc(NC(=O)c3cc(F)cc(C(F)(F)F)c3)c21` (stereo not shown) [Compound I-339] registered an IC50 of 100 to 500 nM. `COc1cc(F)cc(C(=O)Nc2cccc3c2C(c2ccccc2C)NC3=O)c1` (stereo not shown) [Compound I-340] registered an IC50 of 1000 to 10000 nM. As for `COc1cc(F)c(F)c(C(=O)Nc2cccc3c2C(c2ccccc2C)NC3=O)c1` (stereo not shown) [Compound I-341], the IC50 is 10000 to 100000 nM.

`Cc1ccccc1C1NC(=O)c2cccc(NC(=O)c3nc(C)c4c(F)cc(F)cn34)c21` (stereo not shown) [Compound I-342] returned an IC50 of 10000 to 100000 nM.

Regarding `O=C(Nc1cc(NC(=O)C2COC2)cc2c1C(c1cc(F)ccc1Cl)NC2=O)c1cc(F)cc(C(F)(F)F)c1` (stereo not shown) [Compound I-344], the IC50 was no more than 100 nM.

For the molecule `O=C(CO)Nc1cc(NC(=O)c2cc(F)cc(C(F)(F)F)c2)c2c(c1)C(=O)NC2c1cc(F)ccc1Cl` (stereo not shown) [Compound I-345], the IC50 is no more than 100 nM. In the case of `COCC(=O)Nc1cc(NC(=O)c2cc(F)cc(C(F)(F)F)c2)c2c(c1)C(=O)NC2c1cc(F)ccc1Cl` (stereo not shown) [Compound I-346] it was no more than 100 nM.

Consider `O=C(Nc1cc(NC(=O)C2CCOCC2)cc2c1C(c1cc(F)ccc1Cl)NC2=O)c1cc(F)cc(C(F)(F)F)c1` (stereo not shown) [Compound I-347], for which the IC50 was no more than 100 nM. With `O=C(Nc1cc(CN2CC(F)(F)C2)cc2c1C(c1cc(F)ccc1Cl)NC2=O)c1cc(F)cc(C(F)(F)F)c1` (stereo not shown) [Compound I-348, N-(3-(2-Chloro-5-fluorophenyl)-6-((3,3-difluoroazetidin-1-yl)methyl)-1-oxoisoindolin-4-yl)-3-fluoro-5-(trifluoromethyl)benzamide] the figure was no more than 100 nM. With `O=C(Nc1cc(CNC2CC(F)(F)C2)cc2c1C(c1cc(F)ccc1Cl)NC2=O)c1cc(F)cc(C(F)(F)F)c1` (stereo not shown) [Compound I-349] the figure was no more than 100 nM; with `O=C(Nc1cc(CN2CCNCC2)cc2c1C(c1cc(F)ccc1Cl)NC2=O)c1cc(F)cc(C(F)(F)F)c1` (stereo not shown) [Compound I-350], no more than 100 nM. In the case of `O=C(Nc1cc(NC(=O)C2CS(=O)(=O)C2)cc2c1C(c1cc(F)ccc1Cl)NC2=O)c1cc(F)cc(C(F)(F)F)c1` (stereo not shown) [Compound I-351] it was no more than 100 nM; in that of `O=C(Nc1cc(CNC2COC2)cc2c1C(c1cc(F)ccc1Cl)NC2=O)c1cc(F)cc(C(F)(F)F)c1` (stereo not shown) [Compound I-352], no more than 100 nM; in that of `O=C(Nc1cc(CN2CCC(F)(F)C2)cc2c1C(c1cc(F)ccc1Cl)NC2=O)c1cc(F)cc(C(F)(F)F)c1` (stereo not shown) [Compound I-353], no more than 100 nM.

The molecule `O=C(Nc1cc(-n2cc(F)cn2)nc2c1C(c1cc(F)ccc1Cl)NC2=O)c1cc(F)cc(C(F)(F)F)c1` (stereo not shown) [Compound I-354] returned an IC50 of 100 to 500 nM. On to `CC(C)(O)c1cc(NC(=O)c2cc(F)cc(C(F)(F)F)c2)c2c(c1)C(=O)NC2c1ccccc1C(F)F` (stereo not shown) [Compound I-355], for which the IC50 is no more than 100 nM.

As for `CC(C)(O)c1cc(NC(=O)c2nsc3ccccc23)c2c(c1)C(=O)NC2c1ccccc1C(F)F` (stereo not shown) [Compound I-356], the IC50 is no more than 100 nM. In the case of `O=C(Nc1cc(N2CCC(F)(F)C2)nc2c1C(c1cc(F)ccc1Cl)NC2=O)c1cc(F)cc(C(F)(F)F)c1` (stereo not shown) [Compound I-357] it was no more than 100 nM.

Consider `O=C(Nc1cc(N2CCOCC2)nc2c1C(c1cc(F)ccc1Cl)NC2=O)c1cc(F)cc(C(F)(F)F)c1` (stereo not shown) [Compound I-358], for which the IC50 is no more than 100 nM. In turn, `O=C(Nc1cc(NC2CCC(O)C2)cc2c1C(c1cc(F)ccc1Cl)NC2=O)c1cc(F)cc(C(F)(F)F)c1` (stereo not shown) [Compound I-359] returned an IC50 of no more than 100 nM.

For `O=C(CCC(F)F)Nc1cc(NC(=O)c2cc(F)cc(C(F)(F)F)c2)c2c(c1)C(=O)NC2c1cc(F)ccc1Cl` (stereo not shown) [Compound I-360], the IC50 is no more than 100 nM. Molecule `O=C(Nc1cc(NC(=O)C2CCO2)cc2c1C(c1cc(F)ccc1Cl)NC2=O)c1cc(F)cc(C(F)(F)F)c1` (stereo not shown) [Compound I-361] came in with an IC50 of no more than 100 nM. The molecule `O=C(Nc1cc(B(O)O)cc2c1C(c1cc(F)ccc1Cl)NC2=O)c1cc(F)cc(C(F)(F)F)c1` (stereo not shown) [Compound I-362] registered an IC50 of no more than 100 nM.

Molecule `O=C(Nc1cc(O)cc2c1C(c1cc(F)ccc1Cl)NC2=O)c1cc(F)cc(C(F)(F)F)c1` (stereo not shown) [Compound I-363] registered an IC50 of no more than 100 nM. In the case of `O=C(Nc1cc(C2CCCO2)cc2c1C(c1cc(F)ccc1Cl)NC2=O)c1cc(F)cc(C(F)(F)F)c1` (stereo not shown) [Compound I-364] it was no more than 100 nM; in that of `Cc1ccccc1C1NC(=O)c2c(P(C)(C)=O)ccc(NC(=O)c3cc(F)cc(C(F)(F)F)c3)c21` (stereo not shown) [Compound I-365], 1000 to 10000 nM. With `O=C(Nc1cc(N2CC(F)(F)C2)nc2c1[C@H](c1cc(F)ccc1Cl)NC2=O)c1cc(F)cc(C(F)(F)F)c1` [Compound I-366] the figure was no more than 100 nM; with `O=C(Nc1cc(N2CC(F)(F)C2)nc2c1[C@@H](c1cc(F)ccc1Cl)NC2=O)c1cc(F)cc(C(F)(F)F)c1` [Compound I-367], 1000 to 10000 nM; with `CC1(F)CN(c2cc(NC(=O)c3cc(F)cc(C(F)(F)F)c3)c3c(n2)C(=O)NC3c2cc(F)ccc2Cl)C1` (stereo not shown) [Compound I-368], 100 to 500 nM. With `Cc1ccccc1C1NC(=O)c2cccc(NC(=O)c3cc(C(F)(F)F)ccc3F)c21` (stereo not shown) [Compound I-369] the figure was 1000 to 10000 nM; with `O=C(Nc1cc(N2CC(F)(F)C2)cc2c1C(c1cc(F)ccc1Cl)NC2=O)c1cc(F)cc(C(F)(F)F)c1` (stereo not shown) [Compound I-370], no more than 100 nM; with `O=C(Nc1cccc2c1C(c1ccc3ccccc3c1)NC2=O)c1cc(F)cc(C(F)(F)F)c1` (stereo not shown) [Compound I-371], 10000 to 100000 nM. Consider `O=C(Nc1cccc2c1C(c1cc(F)ccc1Cl)NC2=O)c1cc(F)cc(C(F)(F)F)c1` (stereo not shown) [Compound I-372], for which the IC50 is no more than 100 nM. In the case of `COC(=O)c1cc(NC(=O)c2cc(F)cc(C(F)(F)F)c2)c2c(c1)C(=O)NC2c1cc(F)ccc1Cl` (stereo not shown) [Compound I-373] it was no more than 100 nM; in that of `O=C(Nc1cc(C2(O)CC2)cc2c1C(c1cc(F)ccc1Cl)NC2=O)c1cc(F)cc(C(F)(F)F)c1` (stereo not shown) [Compound I-374, N-[3-(2-chloro-5-fluorophenyl)-6-(1-hydroxycyclopropyl)-1-oxo-2,3-dihydro-1H-isoindol-4-yl]-3-fluoro-5-(trifluoromethyl)benzamide], no more than 100 nM.

`Cc1ccccc1C1NC(=O)c2cccc(NC(=O)c3nsc4ccc(Br)cc34)c21` (stereo not shown) [Compound I-376] displayed an IC50 of 500 to 1000 nM. With `Cc1ccccc1C1NC(=O)c2cccc(NC(=O)c3nsc4ccc(C#N)cc34)c21` (stereo not shown) [Compound I-377] the figure was 1000 to 10000 nM; with `Cc1ccccc1C1NC(=O)c2cccc(NC(=O)c3nsc4ccc(-c5ccccc5)cc34)c21` (stereo not shown) [Compound I-378], 1000 to 10000 nM; with `Cn1cc(-c2cc(NC(=O)c3cc(F)cc(Cl)c3)c3c(n2)C(=O)NC3c2cc(F)ccc2Cl)cn1` (stereo not shown) [Compound I-379], 100 to 500 nM. With `Cc1nn(C)cc1-c1cc(NC(=O)c2cc(F)cc(Cl)c2)c2c(n1)C(=O)NC2c1cc(F)ccc1Cl` (stereo not shown) [Compound I-380] the figure was 100 to 500 nM; with `Cc1c(-c2cc(NC(=O)c3cc(F)cc(Cl)c3)c3c(n2)C(=O)NC3c2cc(F)ccc2Cl)cnn1C` (stereo not shown) [Compound I-381], 100 to 500 nM; with `CC(O)(CO)c1cc(NC(=O)c2cc(F)cc(C(F)(F)F)c2)c2c(c1)C(=O)NC2c1cc(F)ccc1Cl` (stereo not shown) [Compound I-382], 100 to 500 nM. With `O=C(Nc1cc(O)cc2c1C(c1cc(F)ccc1Cl)NC2=O)c1cc(F)cc(Cl)c1` (stereo not shown) [Compound I-383] the figure was no more than 100 nM. `Cn1cc(-c2cc(NC(=O)c3cc(F)cc(Cl)c3)c3c(n2)C(=O)N[C@@H]3c2cc(F)ccc2Cl)cn1` [Compound I-384] had an IC50 of 1000 to 10000 nM.

As for `O=C(Nc1cc(B(O)O)cc2c1C(c1cc(F)ccc1Cl)NC2=O)c1cc(F)cc(Cl)c1` (stereo not shown) [Compound I-385], the IC50 is no more than 100 nM.

Take `Cn1cc(-c2cc(NC(=O)c3cc(F)cc(Cl)c3)c3c(n2)C(=O)N[C@H]3c2cc(F)ccc2Cl)cn1` [Compound I-386]: the IC50 is no more than 100 nM.
